Assay results taken from the supplement of paper PMC10307832.

Experiments:
Assay in all cases: relative viability (nuclei count vs DMSO), 5 days (fraction); higher = more cells survive
[1] = compound: CN1CCC(CNc2ccc3ncc(-c4cccc(OC(F)(F)F)c4)n3n2)CC1 [SGI-1776] + COc1cccc2cc(-c3nc([C@H]4CC[C@H](C(=O)O)CC4)n4ncnc(N)c34)[nH]c12 [OSI-027] (partner 0.5 µM)
Method in brief: (§1)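 Five library-drug doses in √10 steps were combined with a fixed anchor-drug dose, or a single drug was given alone, by pin tool to lung cancer cell lines in 1536-well plates the day after seeding. Nuclei were stained and counted after 5 days. Relative viability is the nuclei count in treated wells over that in vehicle wells, taken as the median of duplicate plates.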

[2] = compound: Nc1ccccc1NC(=O)c1ccc(CNC(=O)OCc2cccnc2)cc1 [Entinostat] + CS(=O)(=O)N1CCN(Cc2cc3nc(-c4cccc5[nH]ncc45)nc(N4CCOCC4)c3s2)CC1 [Pictilisib] (partner 1 µM)
Method in brief: as §1

[3] = compound: Nc1ccccc1NC(=O)c1ccc(CNC(=O)OCc2cccnc2)cc1 [Entinostat] + CC(=O)c1c(C)c2cnc(Nc3ccc(N4CCNCC4)cn3)nc2n(C2CCCC2)c1=O [Palbociclib] (partner 0.5 µM)
Method in brief: as §1

[4] = compound: Nc1ccccc1NC(=O)c1ccc(CNC(=O)OCc2cccnc2)cc1 [Entinostat] + COc1cc2c(Oc3ccc(NC(=O)C4(C(=O)Nc5ccc(F)cc5)CC4)cc3F)ccnc2cc1OCCCN1CCOCC1 [Foretinib] (partner 0.25 µM)
Method in brief: as §1

Cell Line | relative viability ([1]; first compound 0.08 µM) | relative viability ([1]; first compound 0.8 µM) | relative viability ([1]; first compound 2.53 µM) | relative viability ([1]; first compound 8 µM) | relative viability ([2]; first compound 0.02 µM) | relative viability ([2]; first compound 0.06325 µM) | relative viability ([2]; first compound 0.2 µM) | relative viability ([2]; first compound 0.6325 µM) | relative viability ([2]; first compound 2 µM) | relative viability ([3]; first compound 0.02 µM) | relative viability ([3]; first compound 0.06325 µM) | relative viability ([3]; first compound 0.2 µM) | relative viability ([3]; first compound 0.6325 µM) | relative viability ([3]; first compound 2 µM) | relative viability ([4]; first compound 0.02 µM) | relative viability ([4]; first compound 0.06325 µM) | relative viability ([4]; first compound 0.2 µM) | relative viability ([4]; first compound 0.6325 µM) | relative viability ([4]; first compound 2 µM)
NCI-H23 | 0.676 | 0.547 | 0.724 | 0.437 | 0.496 | 0.576 | 0.499 | 0.404 | 0.296 | 0.568 | 0.661 | 0.507 | 0.509 | 0.283 | 1.05 | 1.09 | 1.01 | 0.445 | 0.43
NCI-H322M | 0.514 | 0.54 | 0.661 | 0.475 | 0.513 | 0.595 | 0.561 | 0.559 | 0.295 | 0.499 | 0.533 | 0.495 | 0.546 | 0.516 | 0.978 | 1.16 | 1.15 | 0.993 | 0.854
NCI-H358 | 0.747 | 0.856 | 0.663 | 0.304 | 0.332 | 0.327 | 0.369 | 0.278 | 0.187 | 0.134 | 0.14 | 0.17 | 0.127 | 0.125 | 0.755 | 0.81 | 0.66 | 0.41 | 0.124
NCI-H441 | 0.58 | 0.559 | 0.743 | 0.388 | 0.369 | 0.429 | 0.402 | 0.208 | 0.172 | 0.218 | 0.231 | 0.238 | 0.171 | 0.129 | 1.08 | 1.05 | 0.805 | 0.377 | 0.298
NCI-H460 | 0.68 | 0.587 | 0.646 | 0.255 | 0.328 | 0.411 | 0.333 | 0.132 | 0.108 | 0.112 | 0.0634 | 0.0456 | 0.0231 | 0.0171 | 0.967 | 0.954 | 0.699 | 0.193 | 0.0625
NCI-H520 | 0.255 | 0.263 | 0.249 | 0.223 | 0.327 | 0.284 | 0.32 | 0.282 | 0.275 | 0.195 | 0.237 | 0.32 | 0.355 | 0.236 | 0.686 | 0.941 | 0.803 | 0.683 | 0.626
NCI-H647 | 0.712 | 0.613 | 0.559 | 0.301 | 0.508 | 0.755 | 0.469 | 0.314 | 0.093 | 0.318 | 0.343 | 0.337 | 0.0924 | 0.0625 | 1.23 | 1.12 | 0.826 | 0.465 | 0.23
NCI-H650 | 0.565 | 0.489 | 0.501 | 0.378 | 0.934 | 0.914 | 0.75 | 0.579 | 0.269 | 0.412 | 0.349 | 0.361 | 0.257 | 0.167 | 1.16 | 0.933 | 1.04 | 0.839 | 0.477
NCI-H661 | 0.766 | 0.867 | 0.611 | 0.596 | 0.47 | 0.614 | 0.559 | 0.565 | 0.407 | 0.411 | 0.464 | 0.429 | 0.391 | 0.355 | 0.929 | 0.963 | 0.923 | 0.697 | 0.575
NCI-H727 | 0.543 | 0.627 | 0.615 | 0.438 | 0.357 | 0.355 | 0.689 | 0.2 | 0.219 | 0.596 | 0.702 | 0.628 | 0.657 | 0.649 | 0.753 | 0.782 | 0.794 | 0.679 | 0.521
NCI-H838 | 0.414 | 0.401 | 0.308 | 0.246 | 0.439 | 0.613 | 0.72 | 0.461 | 0.237 | 0.254 | 0.224 | 0.28 | 0.236 | 0.171 | 1.05 | 1.23 | 1.12 | 0.746 | 0.321
NCI-H1355 | 0.46 | 0.486 | 0.402 | 0.305 | 0.473 | 0.411 | 0.389 | 0.254 | 0.201 | 0.416 | 0.417 | 0.332 | 0.328 | 0.25 | 0.903 | 0.91 | 0.751 | 0.695 | 0.571
NCI-H1395 | 0.78 | 0.582 | 0.627 | 0.448 | 0.598 | 0.758 | 0.64 | 0.67 | 0.487 | 0.602 | 0.773 | 0.802 | 0.603 | 0.523 | 1 | 1.03 | 0.994 | 0.846 | 0.68
NCI-H1437 | 0.913 | 0.976 | 0.819 | 0.806 | 0.415 | 0.255 | 0.182 | 0.147 | 0.112 | 0.236 | 0.182 | 0.204 | 0.178 | 0.122 | 0.992 | 0.804 | 0.456 | 0.352 | 0.261
NCI-H1650 | 0.627 | 0.565 | 0.417 | 0.197 | 0.65 | 0.67 | 0.554 | 0.407 | 0.248 | 0.352 | 0.299 | 0.334 | 0.283 | 0.162 | 1.08 | 1.06 | 1.11 | 0.681 | 0.57
NCI-H1651 | 0.81 | 0.683 | 0.677 | 0.529 | 0.624 | 0.674 | 0.572 | 0.452 | 0.365 | 0.549 | 0.535 | 0.617 | 0.533 | 0.45 | 0.817 | 0.855 | 0.851 | 0.632 | 0.394
